Laboratory results published in patent publication US5834415A, “Naphthalene boronic acids” (Novo Nordisk A/S, priority 1994, dated 1998).
Read-outs that look alike come from different tables or passages of the source.

Columns and labels:
Savinase = target: T1, Savinase (Lederbergia lenta, UniProt P29600); experiment: Determination of Ki, inhibition of Savinase; type: biochemical, Bacillus
T1 construct: purchased Novo Nordisk A/S
T1 sequence (P29600 1-269): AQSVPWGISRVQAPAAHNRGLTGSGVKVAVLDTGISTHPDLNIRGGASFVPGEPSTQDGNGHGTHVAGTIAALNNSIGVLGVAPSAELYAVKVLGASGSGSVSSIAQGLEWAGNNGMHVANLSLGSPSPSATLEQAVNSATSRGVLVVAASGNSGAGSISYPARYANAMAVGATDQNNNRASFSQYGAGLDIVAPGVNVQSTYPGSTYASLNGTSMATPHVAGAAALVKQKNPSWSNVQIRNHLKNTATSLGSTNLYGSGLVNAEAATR
Description: (§1) c) Determination of Ki : The inhibition constant Ki may be determined by using standard methods, for reference see Keller et al, Biochem. Biophys. Res. Com. 176, 1991, pp.401-405; J. Bieth in Bayer-Symposium "Proteinase Inhibitors", pp. 463-469, Springer-Verlag, 1974 and Lone Kierstein Hansen in "Determination of Specific Activities of Selected Deterrent Proteases using Protease Activity, Molecular Weights, Kinetic Parameters and Inhibition Kinetics", PhD-report, Novo Nordisk A/S and University of Copenhagen, 1991.
(§2) The inhibition constant Ki for the inhibition of Alcalase and Savinase was determined using standard methods under the following conditions:
(§3) Substrate: Succinyl-Alanine-Alanine-Proline-Phenylalanine-paranitro-anilide=SAAPFpNA (Sigma S-7388).
(§4) Buffer: 0.1M Tris-HCl pH 8.6; 25° C.
(§5) Enzyme concentration in assay:
(§6) The initial rate of substrate hydrolysis was determined at nine substrate concentrations in the range of 0.01 to 2 mM using a Cobas Fara automated spectrophotometer. The kinetic parameters Vmax and Km were determined using ENZFITTER (a non-linear regression data analysis program). kcat was calculated from the equation Vmax =kcat ×[Eo ]. The concentration of active enzyme [Eo ] was determined by active site titration using tight-binding protein proteinase inhibitors. The inhibition constant Ki was calculated from plots of Km /kcat as a function of the concentration of inhibitor. The inhibitors were assumed to be 100% pure and the molar concentrations were determined using weighing numbers and molecular weights.

Alcalase = target: T2, Alcalase (Bacillus licheniformis, UniProt P00780); experiment: Determination of Ki, inhibition of Alcalase; type: biochemical
T2 construct: purchased Novo Nordisk A/S
T2 sequence (P00780 106-379): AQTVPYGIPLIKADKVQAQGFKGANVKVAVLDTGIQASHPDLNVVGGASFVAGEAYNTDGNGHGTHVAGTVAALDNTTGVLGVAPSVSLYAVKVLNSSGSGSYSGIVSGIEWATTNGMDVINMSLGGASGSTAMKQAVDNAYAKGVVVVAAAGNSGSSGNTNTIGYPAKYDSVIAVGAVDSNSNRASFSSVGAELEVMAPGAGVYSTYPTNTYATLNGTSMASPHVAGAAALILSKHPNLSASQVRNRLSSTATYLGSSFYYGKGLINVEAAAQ
Description: as §1, §2, §3, §4, §5, §6

subtilisin = conditions: Keller et al, Biochem. Biophys. Res. Com. 176, 1991, pp. 401-405; cited from earlier work
proteolytic enzymes = conditions: prior art; WO 92/19707 for acetamidobenzene boronic acid; cited from earlier work
[1] = substrate SAAPFpNA, 0.1M Tris-HCl pH 8.6, 25° C., Savinase 1×10^-10 - 3×10^-10 M, read-out: Ki Savinase
[2] = substrate SAAPFpNA, 0.1M Tris-HCl pH 8.6, 25° C., Alcalase 1×10^-10 - 3×10^-10 M, read-out: Ki Alcalase

Row | Ki (Savinase; [1]) [µM] | Ki (Alcalase; [2]) [µM] | Molecule | further results
1 | 300 | 400 | OB(O)c1ccc2ccccc2c1 [Naphthalene-2-boronic acid, Naphthalene-2-Boronic Acid] | –
2 | 600 | 500 | OB(O)c1ccc2cc(O)ccc2c1 [6-hydroxynaphthalene-2-boronic acid] | –
3 | 900 | 500 | OB(O)c1cccc2ccccc12 [Naphthalene-1-boronic acid, Naphthalene-1-Boronic Acid] | –
4 | – | – | OB(O)c1cc(Cl)cc(Cl)c1 [3,5-dichlorophenylboronic acid] | capacity as subtilisin inhibitor (subtilisin): particularly effective
5 | – | – | OB(O)O [Boric acid] | inhibition of proteolytic enzymes (proteolytic enzymes): reversibly inhibit proteolytic enzymes; Ki (Savinase): 20000 µM; Ki (Alcalase): 30000 µM
6 | – | – | acetamidobenzene boronic acid | inhibition of proteolytic enzymes (proteolytic enzymes): superior inhibitor of proteolytic enzymes
7 | – | – | CB(O)O [methylboronic acid] | capacity as subtilisin inhibitor (subtilisin): poorest inhibitor
